Test results as given in patent US9714249B2 (Novartis AG, priority 2013, dated 2017).

Assays:
BRD4 (His-Brd4(44-477)) = BRD4 (His-Brd4(44-477)) (Homo sapiens (Human), UniProt O60885); assay: TR-FRET in-vitro binding assay for BRD4; settings: acetyl-histone H4 peptide
Method: All assays were performed in 384 well microtiter plates. Each assay plate contained 8-point serial dilutions for 40 test compounds, plus 16 high- and 16 low controls. Liquid handling and incubation steps were done on an Innovadyne Nanodrop Express equipped with a robotic arm (Thermo CatX, Perkin Elmer/Caliper Twister II) and an incubator (Liconic STX40, Thermo Cytomat 2C450). The assay plates were prepared by addition of 50 nl per well of compound solution in 90% DMSO HummingBird nanodispenser (Zinsser Analytic). […] Reactions were incubated at 30° C. for 35 minutes. […] After 35 minutes incubation at 30° C., plates were measured in a Perkin Elmer EnVision multilabel reader.
Test compounds were dissolved in DMSO (10 mM) and transferred into 1.4 mL flat bottom or V-shaped Matrix tubes carrying a unique 2D matrix. The stock solutions were stored at […] if not used immediately. For the test procedure the vials were defrosted and identified by a scanner whereby a working sheet was generated that guided the subsequent working steps. Compound dilutions were made in 96 well plates. This format enabled the assay of maximally 40 individual test compounds at 8 concentrations (single points) including 4 reference compounds, if desired (known BET inhibitors from the prior art, for this and other assays of the type disclosed herein). The dilution protocol included the production of “pre-dilution plates”, “master plates” and “assay plates”.
Pre-dilution plates: 96 polypropylene well plates were used as pre-dilution plates. A total of 4 pre-dilution plates were prepared including 10 test compounds each on the plate positions A1-A10, one standard compound at A11 and one DMSO control at A12. All dilution steps were done on a HamiltonSTAR robot. […] These plates were used directly for the assay which was performed in a total volume of 13.55 μL. […] Cell Growth Inhibition Assay

MV-4-11 cells = assay: Cell growth inhibition assay (CellTiter-Glo), MV-4-11; type: cell-based, human; settings: MV-4-11, 4 days; for GI50: half-maximal growth inhibition; for MV-4-11 TGI: total growth inhibition
Method: (§1) The human leukemia cell lines MV-4-11, THP-1 and K-562 were employed to characterize the effect of BET inhibitors on cellular proliferation and viability. Cells were obtained from the American Type Culture Collection (ATCC) and cultured at 37° C. in a humidified 5% CO2 incubator in the following media: MV-4-11: DMEM high glucose (Animed #1-26F01-I), 10% FCS (Animed #2-01F26-I), 4 mM L-Glutamine (Animed #5-10K50), 1 mM Sodium Pyruvate (Animed # G03625P), 1× Penicillin-Streptomycin (Animed # F12478P); K-562: Iscove's MEM (Animed #1-28F16-I), 10% FCS (Animed #2-01F26-I), 4 mM L-Glutamine (Animed #5-10K50), 1× Penicillin-Streptomycin (Animed # F12478P); THP-1: RPMI-1640 (Animed #1-41F01-I), 10% FCS (Animed #2-01F26-I), 2 mM L-Glutamine (Animed #5-10K50), 10 mM HEPES (Animed #5-31F100), 1 mM Sodium Pyruvate (Animed # G03625P), 1× Penicillin-Streptomycin (Animed # F12478P). The AML lines MV-4-11 and THP-1 are very sensitive to BET inhibitors and show massive cell death upon BET inhibition (Zuber et al., Nature, 478 (2011), 524-8). Compound-mediated suppression of cell proliferation/viability was assessed by quantification of cellular ATP levels using the CellTiter-Glo (CTG) reagent (Promega). Briefly, cells were seeded in 20 μl fresh medium into 384-well plates, followed by addition of 5 μl medium containing compound dilutions at 5-fold their final intended concentration. Dose-response effects were assessed by 3-fold serial dilutions of the test compound, starting at 10 μM. Following incubation of the cells for 4 days at 37° C. and 5% CO2, the effect of inhibitors on cell viability was quantified following addition of 20 μl CTG and luminescence quantification (integration time: 100 ms) as per vendor manual, using a correspondingly equipped Tecan M200 multi-mode platereader (TECAN, Switzerland). For data analysis, the assay background value determined in wells containing medium, but no cells, was subtracted from all data points. To enable differentiation of cytotoxic from cytostatic compounds, the number of viable cells is assessed relative to that observed at the time of compound addition using a separate cell plate (day 0). The effect of a particular test compound concentration on cell proliferation/viability is expressed as percentage of the background- and day 0-corrected luminescence reading obtained for cells treated with vehicle only (DMSO, 0.1% final concentration), which is set as 100%, whereas that luminescence reading for wells containing medium is set as −100%. Compound concentrations leading to half-maximal (1050) and total growth inhibition (TGI) were determined using standard four parameter curve fitting.

BRD4-NUT-fusion = BRD4-NUT-fusion (Homo sapiens (Human), UniProt O60885+Q86Y26); assay: Nut-foci formation assay (HCS) in HCC2494 NUT midline carcinoma cells; type: cell-based; settings: 24 hours, nuclear BRD4-NUT foci, immunofluorescence
Method: Compound-mediated inhibition of BRD4 activity was monitored by quantification of the number and intensity of nuclear BRD4-NUT foci using automated immunofluorescence microscopy. Briefly, 5000 cells in 20 μl fresh medium were seeded into Poly-D-Lysine-precoated 384-well plates and incubated overnight at 37° C. and 5% CO2, followed by addition of 5 μl medium containing compound dilutions at 5-fold their final intended concentration. Dose-response effects were assessed by 3-fold serial dilutions of the test compound, starting at 10 μM. […] Assay plates were imaged using the appropriate filter sets on the Cellomics VTi automated fluorescence microscopy platform (ThermoFisher Scientific) and the population average of the number of NUT-foci per nucleus is quantified using the Cellomics Spot Detection BioApplication image analysis algorithm (ThermoFisher Scientific). The effect of a particular test compound concentration on NUT-foci number and intensity is expressed as percentage of the value obtained for cells treated with vehicle only (DMSO, 0.1% final concentration), which was set as 100.

THP-1 cells = assay: Cell growth inhibition assay (CellTiter-Glo), THP-1; type: cell-based, human; settings: THP-1, 4 days; for GI50: half-maximal growth inhibition; for THP-1 TGI: total growth inhibition
Method: as §1

K-562 cells = assay: Cell growth inhibition assay (CellTiter-Glo), K-562; type: cell-based, human; settings: K-562, 4 days; for GI50: half-maximal growth inhibition; for K-562 TGI: total growth inhibition
Method: as §1

Structure (SMILES)	IC50 (BRD4 (His-Brd4(44-477))) [nM]	GI50 (MV-4-11 cells; Homo sapiens, MV4-11, 96 h) [nM]	MV-4-11 TGI (MV-4-11 cells) [nM]	IC50 (BRD4-NUT-fusion) [nM]	GI50 (THP-1 cells; Homo sapiens, 96 h) [nM]	THP-1 TGI (THP-1 cells) [nM]	GI50 (K-562 cells; Homo sapiens, K562, 96 h) [nM]	K-562 TGI (K-562 cells) [nM]	GI50 (MV-4-11 cells) [nM]	GI50 (THP-1 cells) [nM]	GI50 (K-562 cells) [nM]
Cc1nn(-c2cccnc2F)c2c1C(=O)N(c1cc(C)c(=O)n(C)c1)C2c1ccc(Cl)cc1 (stereo not shown) [Example 19, 6-(4-chlorophenyl)-5-(1,5-dimethyl-6-oxo-1,6-dihydropyridin-3-yl)-1-(2-fluoropyridin-3-yl)-3-methyl-5,6-dihydropyrrolo[3,4-c]pyrazol-4(1H)-one]	100	50.5	79.8	66.7	91	164	302	>10000			
COc1ccc(-n2nc(C)c3c2C(c2ccc(Cl)cc2)N(c2cc(C)c(=O)n(C)c2)C3=O)cn1 (stereo not shown) [Example 20b, 6-(4-chlorophenyl)-5-(1,5-dimethyl-6-oxo-1,6-dihydropyridin-3-yl)-1-(6-methoxypyridin-3-yl)-3-methyl-5,6-dihydropyrrolo[3,4-c]pyrazol-4(1H)-one]	56	38.6	54.2	57.6	93.1	156	239	>10000			
COc1ncc(-n2nc(C)c3c2C(c2ccc(Cl)cc2)N(c2cc(Cl)c(=O)n(C)c2)C3=O)cn1 (stereo not shown) [Example 8a, 5-(5-chloro-1-methyl-6-oxo-1,6-dihydropyridin-3-yl)-6-(4-chlorophenyl)-1-(2-methoxypyrimidin-5-yl)-3-methyl-5,6-dihydropyrrolo[3,4-c]pyrazol-4(1H)-one]	170	141	294	298	127	493	991	>10000			
Cc1nn(C)c2c1C(=O)N(c1cc(C)c(=O)n(C)c1)C2c1ccc(Cl)cc1 (stereo not shown) [Example 10, 6-(4-chlorophenyl)-5-(1,5-dimethyl-6-oxo-1,6-dihydropyridin-3-yl)-1,3-dimethyl-5,6-dihydropyrrolo[3,4-c]pyrazol-4(1H)-one]	89	39.4	65.5	108	76.4	132	336	>10000			
Cc1nn(C2CC2)c2c1C(=O)N(c1cc(C)c(=O)n(C)c1)C2c1ccc(Cl)cc1 (stereo not shown) [Example 11, 6-(4-chlorophenyl)-1-cyclopropyl-5-(1,5-dimethyl-6-oxo-1,6-dihydropyridin-3-yl)-3-methyl-5,6-dihydropyrrolo[3,4-c]pyrazol-4(1H)-one]	40	18.6	29.4	41.7	36.6	82.2	127	>10000			
Cc1cc(N2C(=O)c3c(C4CC4)nn(CCO)c3C2c2ccc(Cl)cc2)cn(C)c1=O (stereo not shown) [Example 3, 6-(4-chlorophenyl)-3-cyclopropyl-5-(1,5-dimethyl-6-oxo-1,6-dihydropyridin-3-yl)-1-(2-hydroxyethyl)-5,6-dihydropyrrolo[3,4-c]pyrazol-4(1H)-one]	43	37.5	64	49	90.1	264	268	>10000			
COc1ncccc1-c1nn(C)c2c1C(=O)N(c1cc(C)c(=O)n(C)c1)[C@@H]2c1ccc(Cl)cc1 [Example 16, (R)-6-(4-chlorophenyl)-5-(1,5-dimethyl-6-oxo-1,6-dihydropyridin-3-yl)-3-(2-methoxypyridin-3-yl)-1-methyl-5,6-dihydropyrrolo[3,4-c]pyrazol-4(1H)-one]	56	23.6	43.7	60.6	43	92.2	197	>10000			
COCCn1nc(C2CC2)c2c1C(c1ccc(Cl)cc1)N(c1cc(C)c(=O)n(C)c1)C2=O (stereo not shown) [Example 4, 6-(4-chlorophenyl)-3-cyclopropyl-5-(1,5-dimethyl-6-oxo-1,6-dihydropyridin-3-yl)-1-(2-methoxyethyl)-5,6-dihydropyrrolo[3,4-c]pyrazol-4(1H)-one]	14	20.5	33.6	29.9	45.6	100	109	>10000			
CNC1=C(C(=N)C2CC2)C(=O)N(c2cc(C)c(=O)n(C)c2)[C@@H]1c1ccc(Cl)cc1 [Example 2]	16		30.3	20.1		46.8		>10000	15.4	21.9	121
COc1ncccc1-n1nc2c(c1C)C(=O)N(c1cc(Cl)c(=O)n(C)c1)C2c1ccc(Cl)cc1 (stereo not shown) [Example 7b, 5-(5-chloro-1-methyl-6-oxo-1,6-dihydropyridin-3-yl)-6-(4-chlorophenyl)-2-(2-methoxypyridin-3-yl)-3-methyl-5,6-dihydropyrrolo[3,4-c]pyrazol-4(2H)-one]	41	56.7	82.4	74.4	104	285	548	>10000			
Cc1cc(N2C(=O)c3c(C4CC4)nn(-c4ccnn4C)c3C2c2ccc(Cl)cc2)cn(C)c1=O (stereo not shown) [Example 5, 6-(4-chlorophenyl)-3-cyclopropyl-5-(1,5-dimethyl-6-oxo-1,6-dihydropyridin-3-yl)-1-(1-methyl-1H-pyrazol-5-yl)-5,6-dihydropyrrolo[3,4-c]pyrazol-4(1H)-one]	96	53.8	100	138	101	179	658	>10000			
